Experimental data taken from ChEMBL document CHEMBL4477239 (Bioorg Med Chem, 2016).
pIC50: −log10 of the molar value.

Legend:
[1] = tested on: NCI-H1993; assay: Cytotoxicity against human NCI-H1993 cells assessed as growth inhibition after 72 hrs by CCK-8 assay; settings: NCI-H1993, 72 h
[2] = molecular target: Hepatocyte growth factor receptor (Homo sapiens, UniProt P08581)
Sequence of Hepatocyte growth factor receptor (P08581 whole entry): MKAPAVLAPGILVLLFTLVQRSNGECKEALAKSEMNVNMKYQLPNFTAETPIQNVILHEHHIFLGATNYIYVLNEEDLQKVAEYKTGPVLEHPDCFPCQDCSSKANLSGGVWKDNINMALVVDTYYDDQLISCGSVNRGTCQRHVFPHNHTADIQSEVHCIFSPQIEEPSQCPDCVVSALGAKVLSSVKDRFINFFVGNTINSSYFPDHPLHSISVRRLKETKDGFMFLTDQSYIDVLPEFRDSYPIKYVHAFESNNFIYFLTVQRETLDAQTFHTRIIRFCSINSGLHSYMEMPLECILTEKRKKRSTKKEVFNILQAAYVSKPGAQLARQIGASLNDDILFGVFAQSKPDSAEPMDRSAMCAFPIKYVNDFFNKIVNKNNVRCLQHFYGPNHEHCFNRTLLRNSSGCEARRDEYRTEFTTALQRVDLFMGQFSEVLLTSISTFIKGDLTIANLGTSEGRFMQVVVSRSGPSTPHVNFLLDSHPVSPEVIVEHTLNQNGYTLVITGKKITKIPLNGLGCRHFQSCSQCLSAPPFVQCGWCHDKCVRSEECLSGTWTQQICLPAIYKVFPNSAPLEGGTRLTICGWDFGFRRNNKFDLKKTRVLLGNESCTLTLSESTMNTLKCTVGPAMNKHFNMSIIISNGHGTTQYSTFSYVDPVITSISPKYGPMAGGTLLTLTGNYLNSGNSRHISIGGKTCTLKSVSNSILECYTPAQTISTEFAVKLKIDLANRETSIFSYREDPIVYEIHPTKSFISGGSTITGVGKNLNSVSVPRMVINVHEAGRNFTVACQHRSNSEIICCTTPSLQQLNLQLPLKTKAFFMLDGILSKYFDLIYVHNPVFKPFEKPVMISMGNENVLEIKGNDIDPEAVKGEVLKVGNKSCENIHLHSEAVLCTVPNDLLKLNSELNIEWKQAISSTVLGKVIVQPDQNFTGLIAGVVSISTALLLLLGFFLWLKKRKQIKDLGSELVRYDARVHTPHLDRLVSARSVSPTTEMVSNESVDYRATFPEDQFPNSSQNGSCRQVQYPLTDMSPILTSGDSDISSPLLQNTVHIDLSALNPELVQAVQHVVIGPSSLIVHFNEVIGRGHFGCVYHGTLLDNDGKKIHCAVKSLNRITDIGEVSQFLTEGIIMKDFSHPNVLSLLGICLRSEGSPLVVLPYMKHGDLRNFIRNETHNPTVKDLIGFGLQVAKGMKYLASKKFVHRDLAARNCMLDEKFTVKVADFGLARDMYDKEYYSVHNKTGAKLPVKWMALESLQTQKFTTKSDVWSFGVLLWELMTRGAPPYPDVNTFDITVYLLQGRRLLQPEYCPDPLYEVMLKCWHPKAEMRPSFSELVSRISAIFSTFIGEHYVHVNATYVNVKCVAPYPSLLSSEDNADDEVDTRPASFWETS
Description: Inhibition of c-Met kinase (unknown origin) assessed as decrease in phosphorylation of TK substrate-biotin peptide preincubated for 5 to 10 mins followed by ATP addition measured after 30 mins by HTRF assay

Row | Compound | pIC50 [2] | pIC50 [1]
1 | Cn1cc(-c2cnc3ncn(Cc4ccc5ncccc5c4)c3n2)cn1 | – | 6.21
2 | Cn1cc(-c2cnc3nc(O)n(Cc4ccc5ncccc5c4)c3n2)cn1 | < 6.00 | < 5.00
3 | CCC(c1ccc2ncccc2c1F)n1cnc2ncc(-c3ccccc3)nc21 (stereo unspecified) | 7.09 | –
4 | Cc1cc2ncccc2cc1C(C)n1cnc2ncc(-c3cnc4ccccc4c3)nc21 (stereo unspecified) | 7.42 | –
5 | Cc1cc2ncccc2cc1C(C)n1cnc2ncc(-c3cnn(C)c3)nc21 (stereo unspecified) | 7.49 | –
6 | CNC(=O)c1ccc(-c2cnc3ncn(C(C)c4cc5cccnc5cc4C)c3n2)cc1F (stereo unspecified) | 7.51 | –
7 | CCC(c1ccc2ncccc2c1F)n1cnc2ncc(-c3ccc(C(=O)OC)c(F)c3)nc21 (stereo unspecified) | 7.41 | –
8 | Oc1nc2ncc(-c3ccncc3)nc2n1Cc1ccc2ncccc2c1 | < 6.00 | < 5.00
9 | Oc1nc2ncc(-c3ccccc3)nc2n1Cc1ccc2ncccc2c1 | < 6.00 | < 5.00
10 | Cn1nccc1-c1cnc2ncn(Cc3ccc4ncccc4c3)c2n1 | 7.18 | 5.10
11 | CN(C)c1cccc(-c2cnc3ncn(Cc4ccc5ncccc5c4)c3n2)c1 | 7.40 | < 5.00
12 | CCC(c1ccc2ncccc2c1F)n1cnc2ncc(-c3cn[nH]c3)nc21 (stereo unspecified) | 7.42 | –
13 | Cc1nc2ncc(-c3cnn(C)c3)nc2n1Cc1ccc2ncccc2c1 | 6.19 | < 5.00
14 | COC(=O)c1ccc(-c2cnc3ncn(C(C)c4cc5cccnc5cc4C)c3n2)cc1F (stereo unspecified) | 7.19 | –
15 | CCC(c1ccc2ncccc2c1F)n1cnc2ncc(-c3ccncc3)nc21 (stereo unspecified) | 7.00 | –
16 | Cc1cc2ncccc2cc1C(C)n1cnc2ncc(-c3ccncc3)nc21 (stereo unspecified) | 7.17 | –
17 | CC(c1cc(F)c2ncccc2c1)n1cnc2ncc(-c3cccc4ccccc34)nc21 (stereo unspecified) | < 6.00 | –
18 | OCCn1cc(-c2cnc3nnn(Cc4ccc5ncccc5c4)c3n2)cn1 [PF-04217903] | – | 7.47

More lines, in order of rising pIC50 [2], values ahead:

Row | pIC50 [2] | Compound | pIC50 [1]
19 | 7.55 | CCC(c1cc2cccnc2cc1F)n1cnc2ncc(-c3ccccc3)nc21 (stereo unspecified) | –
20 | 7.55 | FC(F)(F)c1ccc(-c2cnc3ncn(Cc4ccc5ncccc5c4)c3n2)cc1 | < 5.00
21 | 7.62 | CC(c1c(F)cc2ncccc2c1F)n1cnc2ncc(-c3cccc4ccccc34)nc21 (stereo unspecified) | –
22 | 7.65 | CCC(c1ccc2ncccc2c1F)n1cnc2ncc(-c3cnn(CCO)c3)nc21 (stereo unspecified) | –
23 | 7.74 | CCC(c1cc2cccnc2cc1F)n1cnc2ncc(-c3ccc(C(=O)OC)c(F)c3)nc21 (stereo unspecified) | –
24 | 7.76 | c1ccc(-c2cnc3ncn(Cc4ccc5ncccc5c4)c3n2)cc1 | 5.13
25 | 7.76 | c1cnc2ccc(Cn3cnc4ncc(-c5ccncc5)nc43)cc2c1 | 5.94
26 | 7.76 | CCC(c1cc2cccnc2cc1F)n1cnc2ncc(-c3cnc4ccccc4c3)nc21 (stereo unspecified) | –
27 | 7.79 | CCC(c1ccc2ncccc2c1F)n1cnc2ncc(-c3cnc4ccccc4c3)nc21 (stereo unspecified) | –
28 | 7.80 | OCCn1cc(-c2cnc3ncn(Cc4ccc5ncccc5c4)c3n2)cn1 | 5.63
29 | 7.85 | CCC(c1cc2cccnc2cc1F)n1cnc2ncc(-c3ccncc3)nc21 (stereo unspecified) | –
30 | 7.87 | CCC(c1ccc2ncccc2c1F)n1cnc2ncc(-c3cnn(C)c3)nc21 (stereo unspecified) | –
31 | 7.88 | c1cnc2ccc(Cn3cnc4ncc(-c5cn[nH]c5)nc43)cc2c1 | 5.54
32 | 7.91 | Nc1ccc(-c2cnc3ncn(Cc4ccc5ncccc5c4)c3n2)cc1 | 5.31
33 | 7.93 | Cc1cc2ncccc2cc1C(C)n1cnc2ncc(-c3ccc(C(N)=O)c(F)c3)nc21 (stereo unspecified) | –
34 | 7.97 | CCC(c1cc2cccnc2cc1F)n1cnc2ncc(-c3cnn(C)c3)nc21 (stereo unspecified) | –
35 | 8.03 | CCC(c1cc2cccnc2cc1F)n1cnc2ncc(-c3ccc(C(=O)NC)c(F)c3)nc21 (stereo unspecified) | –
36 | 8.03 | CCC(c1cc2cccnc2cc1F)n1cnc2ncc(-c3cnn(CCO)c3)nc21 (stereo unspecified) | –
37 | 8.06 | CCC(c1cc2cccnc2cc1F)n1cnc2ncc(-c3cn[nH]c3)nc21 (stereo unspecified) | –
38 | 8.11 | CCC(c1ccc2ncccc2c1F)n1cnc2ncc(-c3ccc(C(=O)NC)c(F)c3)nc21 (stereo unspecified) | –
39 | 8.23 | COC(=O)c1ccc(-c2cnc3ncn(C(C)c4ccc5ncccc5c4C)c3n2)cc1F (stereo unspecified) | –
